Test results: US20220249438A1, “CARBOCYANINE COMPOUNDS FOR TARGETING MITOCHONDRIA AND ERADICATING CANCER STEM CELLS” (LUNELLA BIOTECH, INC., priority 2019, published 2022)
Like-named read-outs stand apart in the source and are kept apart here.

Tests used:
MCF7 cells [1] = test: Metabolic flux analysis (Seahorse XFe96, OCR/ECAR), MCF7; assay type: cell-based, Human; conditions: for ECAR levels / basal and maximal OCR, ATP production: adherent MCF7; for basal and maximal OCR, ATP production: 16 hours, versus vehicle-alone control
Experimental: (§1) FIGS. 4A-4D show the metabolic flux analysis results in MCF7 cells, FIGS. 5A-5D show the metabolic flux analysis results in MDA-MB-231 cells, and FIGS. 6A-6D show the metabolic flux analysis results in MDA-MB-468 cells.
(§2) In addition to metabolic flux analysis, glycolytic function was analyzed at different concentrations of MTDR. This included extracellular acidification rate (ECAR) measurements, glycolysis, glycolytic capacity, and glycolytic reserve. FIGS. 7A-7D show the results of glycolytic function in MCF7 cells, including ECAR, glycolysis, glycolytic capacity, and glycolytic reserve, respectively. FIGS. 8A-8D show the results of glycolytic function in MDA-MB-231 cells, including ECAR, glycolysis, glycolytic capacity, and glycolytic reserve, respectively. FIGS. 9A-9D show the results of glycolytic function in MDA-MB-468 cells, including ECAR, glycolysis, glycolytic capacity, and glycolytic reserve, respectively.
To examine the effects of HITC and DDI on mitochondrial respiration and aerobic glycolysis, adherent MCF7 were treated with each compound, and then OCR and ECAR were measured. […] After treatment, the mitochondrial oxygen consumption rate (OCR) was measured using the Seahorse XFe96 analyzer. Data is expressed as percentage of OCR versus control. All data was normalized for cell number. Statistical analysis was conducted using one-way ANOVA.
(§3) Metabolic Flux Analysis: Extracellular acidification rates and oxygen consumption rates were analyzed using the Seahorse XFe96 analyzer (Agilent/Seahorse Bioscience, USA). Cells were maintained in DMEM supplemented with 10% FBS (fetal bovine serum), 2 mM GlutaMAX, and 1% Pen-Strep. Forty-thousand breast cancer cells were seeded per well, into XFe96-well cell culture plates, and incubated at 37° C. in a 5% CO2 humidified atmosphere. After 24-48 hours, MCF7 cells were washed in pre-warmed XF assay media, as previously described. ECAR and OCR measurements were normalized for cell protein content, by the SRB colorimetric assay. Data sets were analyzed using XFe96 software and Excel software.

MCF7 cells [2] = test: 3D-mammosphere formation assay, MCF7; assay type: cell-based, Human
Source text: (§4) In order to assess the effects of MTDR on CSC propagation, the mammosphere assay was used as a functional readout of “stemness” and 3D anchorage-independent growth. As CSCs are highly-resistant to many types of cell stress, they can undergo anchorage-independent propagation, under low-attachment conditions. […] These “mammospheres” are highly enriched in CSCs and progenitor-like cells, and highly resemble the morula stage of embryonic development, a solid ball of cells without a hollow lumen. Under these culture conditions of non-attachment, the majority of epithelioid cancer cells die, via an unusual form of apoptosis, known as anoikis.
(§5) As a consequence, the growth of 3D spheroids provides functional culture conditions to select for a population of epithelioid CSCs, with EMT properties. As such this provides an ideal assay for identifying small molecules that can target the anchorage-independent growth of CSCs.
(§6) 3D-Mammosphere Formation Assay: A single cell suspension was prepared using enzymatic (1× Trypsin-EDTA, Sigma Aldrich, cat. #T3924), and manual disaggregation (25 gauge needle). Five thousand cells were plated with in mammosphere medium (DMEM-F12/B27/20 ng/ml EGF/PenStrep), under non-adherent conditions, in six wells plates coated with 2-hydroxyethylmethacrylate (poly-HEMA, Sigma, cat. #P3932). […]

[3] = in vivo; cited from earlier work
MDA-MB-231 cells [4] = conditions: MDA-MB-231 mammosphere formation
Source text: as §4, §5, §6

MDA-MB-468 cells [5] = conditions: read-out: IC-50, 3D sphere formation
Source text: as §4, §5, §6

MDA-MB-231 cells [6] = conditions: MDA-MB-231 monolayer
Experimental: as §1, §2, §3

MDA-MB-468 cells [7] = conditions: MDA-MB-468 monolayer
Experimental: as §1, §2, §3

MCF7 cells [8] = conditions: read-out: IC-50, cell viability; MCF7 monolayer; Hoechst 33342; 1 nM to 1 μM; FIG. 10
Experimental: (§7) A Hoechst-based viability assay was used to characterize the selectivity of MTDR for the preferential targeting of cancer cells. Briefly, MCF7, MDA-MB-231 and MDA-MB-468 cell monolayers were treated with MTDR, at concentrations ranging from 1 nM to 1 μM, for a period of one day. Cell viability was assessed using Hoechst 33342, a nuclear dye that stains DNA in live cells. The viability of normal human fibroblasts (hTERT-BJ1) treated with MTDR was also assessed in parallel. Quantitation was performed with a plate-reader.
(§8) MCF7, MDA-MB-231 and MDA-MB-468 cell monolayers were treated with MTDR for a period of 72 hours, and viability was assessed using Hoechst 33342, a nuclear dye that stains DNA in live cells. Effects of MTDR on the viability in normal human fibroblasts (hTERT-BJ1) were assessed in parallel.

MDA-MB-231 cells [9] = conditions: read-out: IC-50, cell viability; MDA-MB-231 monolayer; Hoechst 33342; 1 nM to 1 μM; FIG. 10
Experimental: as §7, §8

MDA-MB-468 cells [10] = conditions: read-out: IC-50, cell viability; MDA-MB-468 monolayer; Hoechst 33342; 1 nM to 1 μM; FIG. 10
Experimental: as §7, §8

[11] = tested on: normal human fibroblasts (hTERT-BJ1); conditions: for IC50: hTERT-BJ1, Hoechst 33342
Experimental: as §7, §8

SMILES: CCN1/C(=C/C=C/C=C/c2ccc3ccccc3[n+]2CC)C=Cc2ccccc21 [DDI]
- ECAR levels (MCF7 cells [1]): did not affect
- basal and maximal OCR, ATP production (MCF7 cells [1]): did not affect

SMILES: CN1\C(=C/C=C/C=C/C=C/C2=[N+](C)c3ccccc3C2(C)C)C(C)(C)c2ccccc21 [HITC]
- ECAR levels (MCF7 cells [1]): increased significantly, at 500 and 1000 nM
- basal and maximal OCR, ATP production (MCF7 cells [1]): significantly inhibited

SMILES: CCCN1/C(=C/C=C2\CCCC(/C=C/C3=[N+](CCC)c4ccccc4C3(C)C)=C2Cl)C(C)(C)c2ccccc21 [IR-780]
- concentrations with significant inhibition of CSC propagation (3D-mammosphere formation) (MCF7 cells [2]; non-adherent MCF7, 1, 50, 100, 500, 1000 nM, five days): not effective
- half-life in serum [3]: minutes to hour

SMILES: CN1C(=CC=CC=CC2=[N+](Cc3ccc(CCl)cc3)c3ccccc3C2(C)C)C(C)(C)c2ccccc21.[Cl-] [MTDR, 1-{4-[(chloromethyl)phenyl]methyl}-3,3-dimethyl-2-[5-(1,3,3-trimethyl-1,3-dihydro-2H-indol-2-ylidene)penta-1,3-dien-1-yl]-3H-indolium chloride]
- IC50 (MCF7 cells [2]; MCF7, MTDR 1 nM to 1,000 nM, 5 days, read-out: IC-50, 3D anchorage-independent growth (mammosphere formation)): < 100 nM
- concentrations inhibiting anchorage-independent growth (MDA-MB-231 cells [4]): above 100 nM
- IC50 (MDA-MB-468 cells [5]): ~50 nM
- concentration from which near complete inhibition of mitochondrial function and ATP production (MCF7 cells [1]; MCF7 monolayer, OCR): ≥ 500 nM
- effect on glycolysis (ECAR) (MCF7 cells [1]; MCF7 monolayer, up to 1 μM): no effect on glycolysis
- concentration from which near complete inhibition of mitochondrial function and ATP production (MDA-MB-231 cells [6]; OCR): ≥ 500 nM
- concentration from which mild-to-moderate inhibition of glycolysis (MDA-MB-231 cells [6]; no significant effect up to 100 nM): ≥ 500 nM
- concentration from which near complete inhibition of mitochondrial function and ATP production (MDA-MB-468 cells [7]; OCR): ≥ 500 nM
- effect on glycolysis (ECAR) (MDA-MB-468 cells [7]; up to 1 μM): no effect on glycolysis
- IC50 (MCF7 cells [8]): 90.7 nM
- IC50 (MDA-MB-231 cells [9]): 399 nM
- IC50 (MDA-MB-468 cells [10]): 432 nM
- IC50 ([11]; read-out: IC-50, cell viability, 1 nM to 1 μM, FIG. 10): 468 nM
- IC50 ([11]; read-out: IC-50, normal cell viability, 72 hours): 1000 nM
- potency and selectivity for breast cancer cells relative to normal fibroblasts ([11]; viability, 72 hours): 10 times
